Reference: patent US10787423B2, “Piperazine and piperidine derivatives, their synthesis and use thereof in inhibiting VDAC oligomerization, apoptosis and mitochondria dysfunction” (THE NATIONAL INSTITUTE FOR BIOTECHNOLOGY IN THE NEGEV LTD., priority 2015, dated 2020)

Target: T1, rVDAC1-GFP2 / rVDAC1-Rluc in T-REx-293 cells (Rattus norvegicus, UniProt Q9Z2L0)
T1 construct: The rVDAC1 gene was cloned into BamHI and HindIII sites of the BRET2 plasmids (N2 variants); expressed in transfected cells; host or cells: T-REx-293 cells stably expressing hVDAC1-shRNA (T-REx-pS10)
Assay: BRET2 assay of VDAC1 oligomerization induced by apoptosis inducers (Method A)
Type: cell-based
Conditions: test compound 10 μM, 1 h pre-incubation; for BRET2, % of inhibition, As2O3: As2O3 60 μM (3 h); for BRET2, % of inhibition, STS: STS 1 μM (3 h); for BRET2, % of inhibition, Selenite: selenite 30 μM (3 h)
Text: BRET2 screening may be carried out as described in the art ([…] et al., (2010) Oligomerization of the mitochondrial protein voltage-dependent anion channel is coupled to the induction of apoptosis. Mol Cell Biol 30, 5698-5709). Plasmids encoding the fusion proteins rat(r)VDAC1-GFP2 and rVDAC1-luc were constructed using the BRET2 plasmids (Perkin Elmer, Waltham, Mass.). The rVDAC1 gene was cloned into BamHI and HindIII sites of the BRET2 plasmids (N2 variants) and amplified using the forward primer [NT] and the reverse primer [NT]. […] The cells were transfected using calcium phosphate method. Transfections were carried out with 0.2 μg of a plasmid coding for rVDAC1-Rluc and with 0.8 μg of a plasmid coding for rVDAC1-GFP2. As a negative control, cells were transfected with plasmids encoding for rVDAC1-Rluc (0.2 μg DNA) and GFP2 (0.8 μg). In another control (control cells), cells were also transfected with a plasmid encoding for rVDAC1-luc (0.2 μg) and plasmid pcDNA4/TO (0.8 μg). The BRET2 signal represents the ratio of the GFP2 fluorescence, measured at its emission wavelength (510 nm), over the light intensity (luminescence) emitted at 395 nm. All measurements were performed using the Infinite 200 ELISA reader (Tecan). BRET2 signals were defined as GFP2/Rluc intensity ratio and calculated as follows: DNA encoding fusion proteins rVDAC1-Rluc (in which RLuc was connected to rVDAC1 at the C terminal position through a linker (GGGS)) and rVDAC1-GFP2 (in which the GFP2 was fused to the rVDAC1 C terminus) was cloned into BRET2 vectors. rVDAC1-GFP2 and rVDAC1-Rluc were expressed in T-REx-293 cells stably expressing shRNA-hVDAC1 and a low level of endogenous hVDAC1 (referred to as T-REx-pS10 cells) hVDAC1-shRNA, being specific to human VDAC1, allowed the expression of rVDAC1 and decreased the participation of endogenous hVDAC1 in oligomerization, thereby enhancing the BRET2 signal. rVDAC1-GFP2 and rVDAC1-Rluc expression levels were correlated with the amount of plasmids used. […] Following incubation, cells were harvested using trypsin, washed twice with PBS by centrifugation at 1000×g, 5 min, resuspended in 200 μl of PBS and divided between two wells of a 96-well clear-bottom plate (Grenier). […] The screening was conducted using BRET2 assay as described above. […] After treatment, the medium was removed and assayed for BRET2 signals as described above. Liquid handling was done with the Tecan (Männedorf, Switzerland) Freedom 150 Robotic & MCA Liquid Handling System, while luciferase luminescence and fluorescence readings were obtained a robot-integrated Tecan Infinite M1000 reader. Method A was used for screening of VDAC1 oligomerization inhibitors. […] Table 2 provides a summary of BRET2-based screen results of the anti-VDAC1 oligomerization activity of compounds from the NCI library. Results are presented as percent inhibition of the BRET2 signal induced by the indicated pro-apoptotic agent.

T1 sequence (Q9Z2L0 with tags, fused parts or gaps limits assumed): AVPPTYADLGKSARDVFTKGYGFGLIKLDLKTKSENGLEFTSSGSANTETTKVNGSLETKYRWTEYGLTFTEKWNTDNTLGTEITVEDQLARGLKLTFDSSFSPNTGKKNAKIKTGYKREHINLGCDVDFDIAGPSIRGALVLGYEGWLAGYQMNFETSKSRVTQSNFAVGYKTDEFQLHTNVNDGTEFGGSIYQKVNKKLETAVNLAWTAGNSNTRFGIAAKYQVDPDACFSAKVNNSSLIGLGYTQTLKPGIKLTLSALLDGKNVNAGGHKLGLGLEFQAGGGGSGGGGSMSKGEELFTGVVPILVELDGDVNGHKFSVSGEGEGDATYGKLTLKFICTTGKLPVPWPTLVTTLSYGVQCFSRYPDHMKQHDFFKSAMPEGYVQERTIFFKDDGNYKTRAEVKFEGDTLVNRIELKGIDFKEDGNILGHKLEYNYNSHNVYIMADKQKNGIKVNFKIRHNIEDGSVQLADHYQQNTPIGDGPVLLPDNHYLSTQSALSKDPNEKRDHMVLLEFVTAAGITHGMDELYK

SMILES	BRET2, % of inhibition, As2O3 [%]	BRET2, % of inhibition, STS [%]	BRET2, % of inhibition, Selenite [%]
CCCOc1nc2c(c(=O)n(C)c(=O)n2C)n1C [NSC 8816]	49.6	0	20.1
COc1ccc(/C=C2/CCOC2=O)cc1 [NSC 10428]	96.4	38.2	75.7
CCOC(=O)c1[nH]c(CO)c(C(=O)OCC)c1C [NSC 10768]	52	0	9.6
Oc1ccc(Cc2ccc(Cl)cc2)c(O)c1 [NSC 11150]	95.2	11.6	67
CCOC(=O)N1CCN(Cc2c(O)ccc3ccccc23)CC1 [NSC 12262]	81.5	0	67.4
O=C(/C=C/c1ccccc1Cl)c1ccc(O)cc1 [NSC 13151]	67	0	0
Nc1ccc(C(=O)Nc2cccc(N)c2)cc1 [NSC 15362]	98	39.7	41
Nc1ccc(NC(=O)Nc2ccc(N)cc2)cc1 [NSC 15364]	85.4	40.9	75.9
O=C(O)c1ccc(O)c(O)c1 [NSC 16631]	0	30.5	41.5
Nc1ncnc2c1cnn2C1CCCCC1 [NSC 19115]	64.2	36.4	62
S=c1nc[nH]c2c1ncn2C1CCCC1 [NSC 19487]	88.8	32.6	68.6
O=[N+]([O-])c1cccc(/C=C/c2ccccn2)c1 [NSC 19637]	76.2	0	61.8
CC(C)NC(=O)c1ccc(C(C)C)cc1 [NSC 20045]	88	0	77.4
Cc1ccc(-n2nnnc2-c2cccnc2)cc1 [NSC 23247]	97.3	0	52.1
CCN1CCc2ccccc2C1 [NSC 28837]	85.2	0.3	48.3
CCOc1ccc(Nc2c3ccccc3nc3ccccc23)cc1 [NSC 30205]	62.7	0	0
CC(C)COC(=O)NC1c2ccccc2Oc2ccccc21 [NSC 31069]	74.9	0	0
COc1c(NC(C)=O)c2ccccc2c2ccccc12 [NSC 31698]	51.3	0	2.1
CCOC(=O)Nc1ccc(C(=O)/C=C/c2ccccc2)cc1 [NSC 31703]	56.7	16.6	33.3
CC1=CC(=O)C(C(C)=Nc2ccccc2Cl)C(=O)O1 (stereo not drawn) [NSC 32892]	55.4	0	16.4
O=c1c(-c2ccc(O)cc2)coc2cc(O)cc(O)c12 [NSC 36586]	49	0	0

SMILES	BRET2, % of inhibition, As2O3 [%]	BRET2, % of inhibition, STS [%]	BRET2, % of inhibition, Selenite [%]
CN1CCN(C(=O)Nc2ccc([N+](=O)[O-])cc2)CC1 [NSC 36815]	67.7	34.5	50
NC(=O)c1ccc(Oc2ccc(C(N)=O)cc2)cc1 [NSC 39047]	70.2	39.1	54
O=C(O)c1cccc2c1C(=O)c1cccc3snc-2c13 [NSC 39938]	48.7	0	18.8
O=C(O)c1cc2ccccc2cc1Nc1ccccc1 [NSC 40275]	64.8	16.8	35.2
O=C(O)c1ccccc1C(=O)Nc1ccccc1[N+](=O)[O-] [NSC 41066]	48.8	0	0
CN1[C@@H]2CC[C@H]1CC(OC(c1ccccc1)c1ccccc1)C2.CS(=O)(=O)O (stereo partly drawn) [NSC 42199]	97	31	78.7
O=P(O)(O)c1cc(-c2ccccc2)oc1-c1ccccc1 [NSC 43344]	80.7	23.8	50.1
CC(C)OC(=O)Nc1ccc(-c2ccc(NC(=O)OC(C)C)cc2Cl)c(Cl)c1 [NSC 43678]	95.1	34.6	78.3
NCc1c(O)ccc2ccccc12 [NSC 48422]	0	36.8	38.6
O=C(Nc1ccc(C2=NCCN2)cc1)c1ccc(Cl)c(C(=O)Nc2ccc(C3=NCCN3)cc2)c1 [NSC 67436]	78.1	14.8	65.7
Nc1nc(N)c(C=Nc2ccc(Br)cc2)c(Nc2ccc(Br)cc2)n1 [NSC 103520]	82.5	22.7	74
CC#CC#Cc1cccc(=O)o1 [NSC 109292]	75.4	0	0
O=C1CN2CCC1C/C2=C\c1ccnc2c(Cl)cccc12 (stereo not drawn) [NSC 132868]	55.5	0	41.4
Cc1ccc([N+](=O)[O-])cc1NC(=O)Nc1ccc(S(N)(=O)=O)cc1 [NSC 146554]	100	0	71.8
O=C(Nc1ccc(Nc2ccncc2)cc1)c1ccc(Nc2ccnc3ccc([N+](=O)[O-])cc23)cc1 [NSC 146771]	70.7	41.2	68.1
O=C(O)c1cc2ccccc2c2cc(Br)ccc12 [NSC 151252]	100	0	29.8
Clc1ccc(/C=C/c2nc(Cl)c(-c3ccc(Cl)cc3)c(Cl)n2)cc1 [NSC 154389]	90.6	45.9	90.6
Nc1ccc(C(=O)Oc2ccc([N+](=O)[O-])cc2)cc1 [NSC 163802]	65.8	0	1.2
CCCCC(=O)N1CCCC(C)C1 (stereo not drawn) [NSC 191029]	86.5	0	36.4
O=C(Nc1cccc([N+](=O)[O-])c1)c1cccc(C(=O)Nc2cccc([N+](=O)[O-])c2)c1 [NSC 204232]	90.3	0	32.5
O=C(/C=C/c1ccccc1)NC(=S)Nc1ncccn1 [NSC 205968]	58.5	0	0
